{
  "source": "ChEMBL document CHEMBL3132769",
  "about": "“Fragment growing to retain or alter the selectivity of anchored kinase hinge-binding fragments” (Medchemcomm, 2014)",
  "key": {"[1]": {"target": "Fibroblast growth factor receptor 1 (Homo sapiens) (UniProt P11362)", "sequence (P11362 22-822 limits assumed)": "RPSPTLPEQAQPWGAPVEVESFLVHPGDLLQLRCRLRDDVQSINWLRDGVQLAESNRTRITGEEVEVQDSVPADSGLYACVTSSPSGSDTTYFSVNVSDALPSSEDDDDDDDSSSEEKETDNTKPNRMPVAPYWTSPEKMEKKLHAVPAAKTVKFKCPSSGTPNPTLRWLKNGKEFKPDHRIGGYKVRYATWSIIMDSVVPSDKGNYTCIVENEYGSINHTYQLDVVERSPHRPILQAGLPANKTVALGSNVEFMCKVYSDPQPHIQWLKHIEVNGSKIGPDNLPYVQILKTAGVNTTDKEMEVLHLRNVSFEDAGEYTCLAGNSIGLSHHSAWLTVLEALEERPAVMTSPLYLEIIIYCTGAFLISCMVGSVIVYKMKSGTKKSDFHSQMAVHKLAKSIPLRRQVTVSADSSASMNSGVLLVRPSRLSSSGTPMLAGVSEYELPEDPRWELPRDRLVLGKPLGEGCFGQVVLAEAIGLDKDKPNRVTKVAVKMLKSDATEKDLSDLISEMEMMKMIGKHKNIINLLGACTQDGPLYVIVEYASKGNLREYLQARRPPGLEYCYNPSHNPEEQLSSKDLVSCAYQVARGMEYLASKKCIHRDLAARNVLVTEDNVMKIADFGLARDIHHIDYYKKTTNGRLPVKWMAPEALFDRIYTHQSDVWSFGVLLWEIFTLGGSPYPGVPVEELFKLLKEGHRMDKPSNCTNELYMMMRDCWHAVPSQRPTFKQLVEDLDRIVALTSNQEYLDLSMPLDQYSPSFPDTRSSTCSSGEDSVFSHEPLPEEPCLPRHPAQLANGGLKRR", "test": "Inhibition of human FGFR1 catalytic domain expressed in baculovirus assessed as substrate phosphorylation using fluorescence-labelled peptides as substrate at 420 uM after 90 mins by microfluidic peptide phosphorylation assay"}, "[2]": {"target": "Serine/threonine-protein kinase pim-1 (Homo sapiens) (UniProt P11309)", "sequence (P11309 whole entry, looked up)": "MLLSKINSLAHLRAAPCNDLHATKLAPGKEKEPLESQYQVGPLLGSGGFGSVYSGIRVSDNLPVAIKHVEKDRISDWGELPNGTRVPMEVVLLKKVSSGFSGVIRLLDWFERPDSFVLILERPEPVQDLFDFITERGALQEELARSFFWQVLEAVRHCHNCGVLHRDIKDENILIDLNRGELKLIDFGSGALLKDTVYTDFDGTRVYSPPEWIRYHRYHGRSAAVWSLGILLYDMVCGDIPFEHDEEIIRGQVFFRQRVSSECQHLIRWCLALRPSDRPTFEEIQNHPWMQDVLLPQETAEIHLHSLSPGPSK", "test": "Inhibition of human full length PIM1 expressed in baculovirus assessed as substrate phosphorylation using fluorescence-labelled peptides as substrate at 420 uM after 90 mins by microfluidic peptide phosphorylation assay"}, "[3]": {"target": "Protein kinase C delta type (Homo sapiens) (UniProt Q05655)", "sequence (Q05655 whole entry, looked up, the tested form may be a part)": "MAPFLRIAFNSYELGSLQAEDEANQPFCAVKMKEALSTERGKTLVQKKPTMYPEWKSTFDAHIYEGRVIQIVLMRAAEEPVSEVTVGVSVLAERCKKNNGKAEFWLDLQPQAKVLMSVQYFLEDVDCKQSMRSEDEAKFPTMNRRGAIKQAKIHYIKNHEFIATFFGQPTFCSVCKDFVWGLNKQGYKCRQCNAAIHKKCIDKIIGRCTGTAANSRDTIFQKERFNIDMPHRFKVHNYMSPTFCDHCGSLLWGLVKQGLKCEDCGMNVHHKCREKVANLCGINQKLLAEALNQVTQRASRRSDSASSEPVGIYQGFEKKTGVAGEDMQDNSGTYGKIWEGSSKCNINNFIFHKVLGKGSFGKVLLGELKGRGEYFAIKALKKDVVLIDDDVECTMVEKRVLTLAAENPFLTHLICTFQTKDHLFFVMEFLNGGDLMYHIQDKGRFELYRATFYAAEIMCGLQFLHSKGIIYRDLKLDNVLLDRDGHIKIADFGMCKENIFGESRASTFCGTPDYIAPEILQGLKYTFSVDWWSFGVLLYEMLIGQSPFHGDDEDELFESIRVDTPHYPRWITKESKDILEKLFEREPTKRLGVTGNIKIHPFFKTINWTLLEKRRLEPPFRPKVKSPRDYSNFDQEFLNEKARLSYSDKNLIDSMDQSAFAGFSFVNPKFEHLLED", "test": "Inhibition of human truncated PKC delta expressed in baculovirus assessed as substrate phosphorylation using fluorescence-labelled peptides as substrate at 420 uM after 90 mins by microfluidic peptide phosphorylation assay"}, "[4]": {"target": "Tyrosine-protein kinase Fyn (Homo sapiens) (UniProt P06241)", "sequence (P06241 2-537 limits assumed)": "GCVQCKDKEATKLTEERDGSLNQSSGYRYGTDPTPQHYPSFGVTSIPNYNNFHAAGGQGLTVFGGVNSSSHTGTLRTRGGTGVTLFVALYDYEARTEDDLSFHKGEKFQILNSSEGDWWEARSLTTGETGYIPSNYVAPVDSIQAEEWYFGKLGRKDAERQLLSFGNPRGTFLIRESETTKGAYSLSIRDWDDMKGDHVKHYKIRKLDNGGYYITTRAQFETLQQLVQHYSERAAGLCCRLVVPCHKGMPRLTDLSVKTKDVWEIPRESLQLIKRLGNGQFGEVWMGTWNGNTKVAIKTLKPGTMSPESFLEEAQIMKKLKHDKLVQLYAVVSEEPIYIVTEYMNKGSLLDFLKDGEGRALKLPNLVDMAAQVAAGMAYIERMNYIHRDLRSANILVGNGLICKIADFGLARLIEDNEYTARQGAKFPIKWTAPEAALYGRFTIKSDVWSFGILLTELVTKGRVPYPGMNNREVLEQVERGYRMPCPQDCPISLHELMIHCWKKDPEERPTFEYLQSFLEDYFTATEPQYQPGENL", "test": "Inhibition of human full length FYN expressed in baculovirus assessed as substrate phosphorylation using fluorescence-labelled peptides as substrate at 0.2 uM after 90 mins by microfluidic peptide phosphorylation assay"}, "[5]": {"target": "Fibroblast growth factor receptor 4 (Homo sapiens) (UniProt P22455)", "sequence (P22455 22-802 limits assumed)": "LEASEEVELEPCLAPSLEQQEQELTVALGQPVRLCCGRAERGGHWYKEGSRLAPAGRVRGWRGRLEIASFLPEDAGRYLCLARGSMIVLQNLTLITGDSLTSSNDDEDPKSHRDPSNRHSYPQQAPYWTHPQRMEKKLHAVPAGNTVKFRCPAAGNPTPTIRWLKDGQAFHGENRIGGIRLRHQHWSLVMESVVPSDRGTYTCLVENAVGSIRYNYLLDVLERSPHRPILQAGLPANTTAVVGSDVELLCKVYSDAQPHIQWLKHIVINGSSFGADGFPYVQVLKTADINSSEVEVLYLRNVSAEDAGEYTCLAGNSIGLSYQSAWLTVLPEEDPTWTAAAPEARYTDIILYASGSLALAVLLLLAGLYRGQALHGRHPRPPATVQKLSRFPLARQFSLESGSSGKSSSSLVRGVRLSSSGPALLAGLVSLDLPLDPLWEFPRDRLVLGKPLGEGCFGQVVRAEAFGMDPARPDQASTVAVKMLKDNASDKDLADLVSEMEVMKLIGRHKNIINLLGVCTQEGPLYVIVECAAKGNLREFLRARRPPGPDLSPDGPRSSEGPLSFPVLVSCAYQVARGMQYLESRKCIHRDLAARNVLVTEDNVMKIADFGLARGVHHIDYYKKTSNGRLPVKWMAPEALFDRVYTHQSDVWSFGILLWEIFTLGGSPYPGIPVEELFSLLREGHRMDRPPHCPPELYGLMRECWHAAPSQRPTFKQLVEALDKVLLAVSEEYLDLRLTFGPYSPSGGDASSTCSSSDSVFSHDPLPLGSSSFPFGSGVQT", "test": "Inhibition of human FGFR4 catalytic domain expressed in baculovirus assessed as substrate phosphorylation using fluorescence-labelled peptides as substrate at 0.2 uM after 90 mins by microfluidic peptide phosphorylation assay"}, "[6]": {"target": "T1, Serine/threonine-protein kinase 3 (Homo sapiens) (UniProt Q13188)", "T1 sequence (whole entry)": "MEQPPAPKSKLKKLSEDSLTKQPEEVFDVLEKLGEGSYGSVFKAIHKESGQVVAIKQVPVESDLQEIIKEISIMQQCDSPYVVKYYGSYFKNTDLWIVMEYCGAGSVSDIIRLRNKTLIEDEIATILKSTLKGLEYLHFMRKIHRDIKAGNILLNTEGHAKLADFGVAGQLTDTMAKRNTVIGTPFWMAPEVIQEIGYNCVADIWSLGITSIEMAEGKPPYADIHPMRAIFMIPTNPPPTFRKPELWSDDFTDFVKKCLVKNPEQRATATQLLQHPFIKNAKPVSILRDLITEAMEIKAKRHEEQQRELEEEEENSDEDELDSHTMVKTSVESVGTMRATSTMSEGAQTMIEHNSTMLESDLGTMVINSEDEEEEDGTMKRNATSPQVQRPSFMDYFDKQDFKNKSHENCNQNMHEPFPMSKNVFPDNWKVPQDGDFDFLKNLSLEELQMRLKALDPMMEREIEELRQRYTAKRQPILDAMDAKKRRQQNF", "test": "Inhibition of human full length MST2 expressed in baculovirus assessed as substrate phosphorylation using fluorescence-labelled peptides as substrate at 0.1 uM after 90 mins by microfluidic peptide phosphorylation assay"}, "[7]": {"target": "Mitogen-activated protein kinase kinase kinase kinase 4 (Homo sapiens) (UniProt O95819)", "conditions": "0.1 uM", "description": "Inhibition of human HGK catalytic domain expressed in baculovirus assessed as substrate phosphorylation using fluorescence-labelled peptides as substrate at 0.1 uM after 90 mins by microfluidic peptide phosphorylation assay"}, "[8]": {"target": "T2, Serine/threonine-protein kinase DCLK2 (Homo sapiens) (UniProt Q8N568)", "T2 sequence (whole entry)": "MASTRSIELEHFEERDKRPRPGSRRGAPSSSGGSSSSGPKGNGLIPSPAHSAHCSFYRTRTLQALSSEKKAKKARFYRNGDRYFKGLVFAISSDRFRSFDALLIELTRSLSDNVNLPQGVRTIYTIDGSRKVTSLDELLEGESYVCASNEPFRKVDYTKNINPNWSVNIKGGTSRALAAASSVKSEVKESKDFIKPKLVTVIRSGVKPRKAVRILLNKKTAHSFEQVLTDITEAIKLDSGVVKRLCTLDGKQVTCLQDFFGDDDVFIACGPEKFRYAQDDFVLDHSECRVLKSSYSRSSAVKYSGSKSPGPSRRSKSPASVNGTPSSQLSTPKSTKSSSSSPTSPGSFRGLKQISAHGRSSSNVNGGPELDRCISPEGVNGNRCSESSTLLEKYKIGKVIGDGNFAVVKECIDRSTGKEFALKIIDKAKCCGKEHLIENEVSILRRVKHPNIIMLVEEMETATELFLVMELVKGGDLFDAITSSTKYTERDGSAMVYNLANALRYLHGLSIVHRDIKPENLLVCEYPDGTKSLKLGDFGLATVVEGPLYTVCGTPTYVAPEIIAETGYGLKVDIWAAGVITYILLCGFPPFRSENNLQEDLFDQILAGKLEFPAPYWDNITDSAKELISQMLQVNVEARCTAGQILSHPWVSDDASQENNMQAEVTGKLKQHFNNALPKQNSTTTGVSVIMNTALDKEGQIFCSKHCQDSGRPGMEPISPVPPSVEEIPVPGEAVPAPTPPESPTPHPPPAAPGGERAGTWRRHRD", "test": "Inhibition of human full length DCAMKL2 expressed in baculovirus assessed as substrate phosphorylation using fluorescence-labelled peptides as substrate at 9 uM after 90 mins by microfluidic peptide phosphorylation assay"}, "[9]": {"system": "Fibroblast growth factor receptor 2 (Homo sapiens), P21802 [N549H]", "sequence (P21802 whole entry N549H, the tested form may be a part)": "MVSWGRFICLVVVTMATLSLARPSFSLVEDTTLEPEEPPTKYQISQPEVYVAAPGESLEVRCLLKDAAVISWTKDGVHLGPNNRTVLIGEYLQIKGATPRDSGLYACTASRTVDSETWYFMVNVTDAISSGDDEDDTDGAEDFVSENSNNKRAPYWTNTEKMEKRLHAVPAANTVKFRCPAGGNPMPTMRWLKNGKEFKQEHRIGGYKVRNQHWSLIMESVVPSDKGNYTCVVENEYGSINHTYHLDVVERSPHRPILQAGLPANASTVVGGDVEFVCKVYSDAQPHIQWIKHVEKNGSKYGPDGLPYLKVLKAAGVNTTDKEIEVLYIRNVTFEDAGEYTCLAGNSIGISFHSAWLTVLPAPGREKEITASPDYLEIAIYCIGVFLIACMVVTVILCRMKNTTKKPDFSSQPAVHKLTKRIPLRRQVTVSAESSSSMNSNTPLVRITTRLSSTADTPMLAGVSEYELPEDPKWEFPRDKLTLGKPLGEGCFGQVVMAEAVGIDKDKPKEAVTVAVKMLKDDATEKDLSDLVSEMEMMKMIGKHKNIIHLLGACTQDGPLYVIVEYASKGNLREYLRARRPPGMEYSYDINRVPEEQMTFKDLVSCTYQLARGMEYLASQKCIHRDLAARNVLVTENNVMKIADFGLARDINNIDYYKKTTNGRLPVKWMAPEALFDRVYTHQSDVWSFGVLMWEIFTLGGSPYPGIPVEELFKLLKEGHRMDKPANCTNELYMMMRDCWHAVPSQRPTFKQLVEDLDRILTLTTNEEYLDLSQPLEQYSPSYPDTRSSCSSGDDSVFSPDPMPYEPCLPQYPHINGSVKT", "test": "Inhibition of human FGFR2 N549H mutant catalytic domain expressed in baculovirus assessed as substrate phosphorylation using fluorescence-labelled peptides as substrate at 70 uM after 90 mins by microfluidic peptide phosphorylation assay"}, "[10]": {"target": "T3, Mitogen-activated protein kinase 13 (Homo sapiens) (UniProt O15264)", "T3 sequence (whole entry)": "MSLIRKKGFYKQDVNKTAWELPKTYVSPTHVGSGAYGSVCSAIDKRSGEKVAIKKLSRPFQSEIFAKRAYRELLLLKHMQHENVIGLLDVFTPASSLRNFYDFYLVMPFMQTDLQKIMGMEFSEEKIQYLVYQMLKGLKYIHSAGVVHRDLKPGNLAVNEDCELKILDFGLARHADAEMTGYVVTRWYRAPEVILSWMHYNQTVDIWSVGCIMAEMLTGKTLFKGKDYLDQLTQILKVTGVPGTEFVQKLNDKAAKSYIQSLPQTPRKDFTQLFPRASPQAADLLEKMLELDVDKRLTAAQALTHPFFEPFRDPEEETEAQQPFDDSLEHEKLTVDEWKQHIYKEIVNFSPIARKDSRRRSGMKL", "test": "Inhibition of human full length p38 delta expressed in Escherichia coli cell assessed as substrate phosphorylation using fluorescence-labelled peptides as substrate at 70 uM after 90 mins by microfluidic peptide phosphorylation assay"}, "[11]": {"target": "Tyrosine-protein kinase BTK (Homo sapiens) (UniProt Q06187)", "test": "Inhibition of human full length BTK expressed in baculovirus assessed as substrate phosphorylation using fluorescence-labelled peptides as substrate at 8 uM after 90 mins by microfluidic peptide phosphorylation assay"}, "[12]": {"target": "Insulin-like growth factor 1 receptor (Homo sapiens) (UniProt P08069)", "test": "Inhibition of human IGF1R catalytic domain expressed in baculovirus assessed as substrate phosphorylation using fluorescence-labelled peptides as substrate at 1000 uM after 90 mins by microfluidic peptide phosphorylation assay"}, "[13]": {"target": "Ribosomal protein S6 kinase alpha-5 (Homo sapiens) (UniProt O75582)", "sequence (O75582 whole entry, looked up)": "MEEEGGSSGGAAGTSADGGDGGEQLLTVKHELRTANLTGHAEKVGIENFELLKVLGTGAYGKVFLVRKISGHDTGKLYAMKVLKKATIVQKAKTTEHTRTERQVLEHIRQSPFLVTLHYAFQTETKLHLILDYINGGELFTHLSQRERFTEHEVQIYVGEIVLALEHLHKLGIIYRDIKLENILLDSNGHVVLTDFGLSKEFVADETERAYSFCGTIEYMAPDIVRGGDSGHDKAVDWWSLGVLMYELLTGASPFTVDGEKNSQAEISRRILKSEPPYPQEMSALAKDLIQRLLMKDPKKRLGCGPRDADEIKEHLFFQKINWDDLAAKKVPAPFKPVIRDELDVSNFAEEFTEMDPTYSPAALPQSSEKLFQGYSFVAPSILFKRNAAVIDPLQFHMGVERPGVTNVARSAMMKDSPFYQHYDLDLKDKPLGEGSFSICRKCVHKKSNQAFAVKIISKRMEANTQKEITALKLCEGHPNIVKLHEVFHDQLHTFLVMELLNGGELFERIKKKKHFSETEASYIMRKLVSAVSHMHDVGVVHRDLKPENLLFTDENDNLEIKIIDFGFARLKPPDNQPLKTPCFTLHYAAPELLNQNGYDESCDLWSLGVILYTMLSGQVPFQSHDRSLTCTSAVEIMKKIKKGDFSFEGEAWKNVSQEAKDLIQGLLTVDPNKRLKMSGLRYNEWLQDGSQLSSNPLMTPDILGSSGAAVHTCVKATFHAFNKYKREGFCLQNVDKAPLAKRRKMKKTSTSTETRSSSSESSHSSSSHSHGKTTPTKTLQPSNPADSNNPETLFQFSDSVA", "test": "Inhibition of human full length MSK1 expressed in baculovirus assessed as substrate phosphorylation using fluorescence-labelled peptides as substrate at 2 uM after 90 mins by microfluidic peptide phosphorylation assay"}},
  "data": [
    {"smiles": "c1nc(N2CCOCC2)c2nc[nH]c2n1", "values": [
      {"measurement": "inhibition", "setting": "[1]", "value": 97, "unit": "%"},
      {"measurement": "inhibition", "setting": "[2]", "value": 31.5, "unit": "%"},
      {"measurement": "inhibition", "setting": "[3]", "value": 78.5, "unit": "%"}
    ]},
    {"smiles": "Clc1ccc(C2(c3ccc(-c4ncnc5[nH]cnc45)cc3)CCNCC2)cc1", "values": [
      {"measurement": "inhibition", "setting": "[4]", "value": 16, "unit": "%"},
      {"measurement": "inhibition", "setting": "[5]", "value": 1.5, "unit": "%"}
    ]},
    {"smiles": "C[C@H](CN(C)C)Oc1nc(Nc2cc3cccc(Cl)c3cn2)cnc1C#N", "values": [
      {"measurement": "inhibition", "setting": "[6]", "value": 11.5, "unit": "%"},
      {"measurement": "inhibition", "setting": "[7]", "value": 0, "unit": "%"}
    ]},
    {"smiles": "NCC1CN(c2ncnc3[nH]c4cnccc4c23)CCO1", "note": "(stereo not drawn)", "values": [
      {"measurement": "inhibition", "setting": "[8]", "value": 3, "unit": "%"}
    ]},
    {"smiles": "CNCc1ccc(-c2ncnc3[nH]cnc23)cc1", "values": [
      {"measurement": "inhibition", "setting": "[9]", "value": 35.5, "unit": "%"},
      {"measurement": "inhibition", "setting": "[10]", "value": 5, "unit": "%"}
    ]},
    {"smiles": "NCC1CCN(c2ncnc3[nH]ccc23)CC1", "values": [
      {"measurement": "inhibition", "setting": "[11]", "value": 4.5, "unit": "%"}
    ]},
    {"smiles": "c1cnc2[nH]ccc2c1", "values": [
      {"measurement": "inhibition", "setting": "[12]", "value": 51.5, "unit": "%"}
    ]},
    {"smiles": "NC1CCN(c2ncnc3[nH]ccc23)CC1", "values": [
      {"measurement": "inhibition", "setting": "[13]", "value": 0.5, "unit": "%"}
    ]}
  ]
}
